Reference: PMC6025150, “Synthesis, enzyme inhibitory kinetics mechanism and computational study of N-(4-methoxyphenethyl)-N-(substituted)-4-methylbenzenesulfonamides as novel therapeutic agents for Alzheimer’s disease” (PeerJ, 2018)
In brackets after ≈: the same amount, converted by molar mass. Several values for one entry are separate records, joined by “and”; a condition that tells them apart may be missing. Identical values can stand only once. Entries after “also recorded” stand apart in the source; their conditions may differ. Like-named read-outs stand apart in the source and are kept apart here.

Columns and labels:
[1] = biological target: T1, acetylcholinesterase (from human erythrocytes) (Homo sapiens, UniProt P22303); assay: biochemical; set-up: LogIC50 (best-fit value): unit not given here; details: for inhibition (Mean): mean of three; for IC50 (best-fit value): unit not given
T1 construct: acetylcholinesterase (from human erythrocytes, purchased from Sigma-Aldrich, Seoul, Korea); purchased Sigma-Aldrich, Seoul, Korea; host or cells: human erythrocytes (natural source)
T1 sequence (P22303 32-617 isoform P22303-2 limits assumed): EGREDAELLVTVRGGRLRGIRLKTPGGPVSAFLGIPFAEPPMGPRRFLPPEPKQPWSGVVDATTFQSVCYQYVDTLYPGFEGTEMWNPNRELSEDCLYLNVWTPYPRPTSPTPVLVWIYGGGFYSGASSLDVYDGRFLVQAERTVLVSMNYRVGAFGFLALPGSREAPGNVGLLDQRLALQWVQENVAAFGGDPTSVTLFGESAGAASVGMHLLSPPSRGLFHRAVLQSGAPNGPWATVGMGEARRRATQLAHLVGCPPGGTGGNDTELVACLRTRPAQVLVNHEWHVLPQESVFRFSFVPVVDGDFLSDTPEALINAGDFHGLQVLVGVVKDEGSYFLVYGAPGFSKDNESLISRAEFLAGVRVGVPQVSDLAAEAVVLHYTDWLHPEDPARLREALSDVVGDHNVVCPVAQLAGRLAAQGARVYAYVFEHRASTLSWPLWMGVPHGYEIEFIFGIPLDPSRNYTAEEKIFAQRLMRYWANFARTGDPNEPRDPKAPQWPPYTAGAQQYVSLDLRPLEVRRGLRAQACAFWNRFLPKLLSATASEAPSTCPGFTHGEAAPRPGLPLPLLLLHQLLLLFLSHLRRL
Experimental: The inhibitory activities of synthesized compounds were determined spectrophotometrically using acetylthiocholine iodide as substrate by following the method of ([Ellman et al., 1961]). Briefly, The assay solution consisted of 180 µL of 50 mM Tris-HCl buffer, pH 7.7, containing (0.1 M sodium chloride and 0.02 M magnesium chloride) and 20 µL of enzyme (AChE, EC 3.1.1.7), acetylcholinesterase (from human erythrocytes, purchased from Sigma-Aldrich, Seoul, Korea) solution (50 U per well); increasing concentrations of test compounds (10 µL) were added to the assay solution and pre incubated for 30 min at 4 °C. After that 5,5′ Dithiobis (2 nitrobenzoic acid) (0.3 mM, 20 µL) and acetylthiocholine iodide (1.8 mM, 20 µL) were added to the reaction mixture and incubated at 37 °C for 10 min, followed by the measurement of absorbance at 412 nm. For non-enzymatic reaction, the assays were carried out with a blank containing all components except acetylcholinesterase. The assay measurements were measured at 412 nm using a micro plate reader (OPTI Max Tunable; Molecular Devices, Sunnyvale, CA, USA) having a wave-length range from 340–850 nm; for 96 well plates. The reaction rates were compared and percent inhibition was calculated due to the presence of tested inhibitors. […] Each concentration was analyzed in three independent experiments run in triplicate. The IC50 values were calculated by nonlinear regression using GraphPad Prism 5.0.
The % of Inhibition of Acetylcholinesterase was calculated as following: Inhibition%=B−S∕B×100. Here, the B and S are the absorbance’s for the blank and samples.

[2] = biological target: T1, acetylcholinesterase (from human erythrocytes); assay: Determination of AChE inhibition kinetics (Lineweaver-Burk and secondary plots); format: biochemical
Experimental: The reaction mixture consisted of 180 µL of 50 mM Tris-HCl buffer (pH 7.7); 10 µL of 5c at the different concentrations (0.00, 0.075 and 0.15 µM) and 20 µL enzyme AChE (50 U per well). We added 20 µL of DTNB 0.3 mM and 20 µL of ATCI substrate at the different concentrations (4, 2, 1, 0.5, 0.25 and 0.125 mM) and mixed, pre-incubated time was same as acetylcholinesterase assay. We measured the absorbance at 412 nm up to 5 min. Lineweaver-Burk plot of the inverse of velocities vs. the inverse of substrate concentration was used for assessment of the type of inhibition AChE kinetically. […] The results (change in absorbance per sec) were processed by using SoftMaxPro software.

[3] = from human erythrocytes, mean ± SEM, read-out: Acetylcholinesterase IC50 ± SEM
[4] = log(inhibitor) vs. response fit, single run, IC50 Raw Data sheet
[5] = mean converted to uM, Raw Data of IC50 sheet, read-out: IC50
[6] = Conc: 0.0306373 (unit not given), Raw Data of IC50 sheet
[7] = Conc: 0.0612745 (unit not given), Raw Data of IC50 sheet
[8] = Conc: 0.122549 (unit not given), Raw Data of IC50 sheet
[9] = Conc: 0.245098 (unit not given), Raw Data of IC50 sheet
[10] = Conc: 0.490196 (unit not given), Raw Data of IC50 sheet
[11] = Conc: 0.980392 (unit not given), Raw Data of IC50 sheet
[12] = Conc: 1.96078 (unit not given), Raw Data of IC50 sheet
[13] = Conc: 3.92157 (unit not given), Raw Data of IC50 sheet
[14] = Concentration 0.0306373 (unit not given), IC50 Raw Data sheet
[15] = Concentration 0.0612745 (unit not given), IC50 Raw Data sheet
[16] = Concentration 0.122549 (unit not given), IC50 Raw Data sheet
[17] = Concentration 0.245098 (unit not given), IC50 Raw Data sheet
[18] = Concentration 0.490196 (unit not given), IC50 Raw Data sheet
[19] = Concentration 0.980392 (unit not given), IC50 Raw Data sheet
[20] = Concentration 1.96078 (unit not given), IC50 Raw Data sheet
[21] = Concentration 3.92157 (unit not given), IC50 Raw Data sheet
[22] = each of three independent experiments, Raw Data of IC50 sheet
[23] = mean of three experiments, Raw Data of IC50 sheet

SMILES	IC50 [1, 3] [µM]	LogIC50 (best-fit value) [1, 4]	IC50 [1, 5] [µM]	inhibition, single experiment [1, 6]	inhibition (Mean) [1, 6]	inhibition, single experiment [1, 7]	inhibition (Mean) [1, 7]	inhibition, single experiment [1, 8]	inhibition (Mean) [1, 8]	inhibition, single experiment [1, 9]	inhibition (Mean) [1, 9]	inhibition, single experiment [1, 10]	inhibition (Mean) [1, 10]	inhibition, single experiment [1, 11]	inhibition (Mean) [1, 11]	inhibition, single experiment [1, 12]	inhibition (Mean) [1, 12]	inhibition, single experiment [1, 13]	inhibition (Mean) [1, 13]	% inhibition [1, 14] [%]	also measured
COc1ccc(CCN(C(C)C)S(=O)(=O)c2ccc(C)cc2)cc1 [Compound 5c, N-(4-Methoxyphenethyl)-4-methyl-N-(2-propyl)benzensulfonamide]	0.0751 ± 0.0189	-1.584	0.0751																		IC50 ([1]; each of three independent experiments, Raw Data of IC50 sheet, read-out: IC50, single experiment (converted)): 0.0424 µM and 0.108 µM; IC50 ([1]; log(inhibitor) vs. response fit, single run, unit inferred, IC50 Raw Data sheet, read-out: IC50 (best-fit value) (converted)): 0.075 µM; IC50 ([1]; mean of three experiments, Raw Data of IC50 sheet, read-out: IC50 (Mean) (converted)): 0.0751 µM; type of inhibition ([2]; Lineweaver-Burk plots): competitively; also recorded: competitive; Slope of Lineweaver-Burk line ([2]; compound 0.075 µM): 1360.1; Vmax (1/V) ([2]; compound 0.075 µM, substrate axis value 0.25): 994.096; Vmax (1/V) ([2]; compound 0.075 µM, substrate axis value 0.5): 1353.4; Vmax (1/V) ([2]; compound 0.075 µM, substrate axis value 1): 2004.13; Vmax (1/V) ([2]; compound 0.075 µM, substrate axis value 2): 3323.6; Vmax (1/V) ([2]; compound 0.075 µM, substrate axis value 4): 5882.71; Vmax (1/V) ([2]; compound 0.075 µM, substrate axis value 8): 11587.8; Slope of Lineweaver-Burk line ([2]; compound 0.15 µM): 1563.63; Vmax (1/V) ([2]; compound 0.15 µM, substrate axis value 0.25): 1136.29; Vmax (1/V) ([2]; compound 0.15 µM, substrate axis value 0.5): 1514.8; Vmax (1/V) ([2]; compound 0.15 µM, substrate axis value 1): 2227.02; Vmax (1/V) ([2]; compound 0.15 µM, substrate axis value 2): 3687.56; Vmax (1/V) ([2]; compound 0.15 µM, substrate axis value 4): 6343.71; Vmax (1/V) ([2]; compound 0.15 µM, substrate axis value 8): 13371.1; Ki ([2]; from Dixon / secondary plot of slope vs inhibitor concentration, read-out: inhibition constant Ki (EI dissociation constant)): 2500 nM
COc1ccc(CCN(Cc2cccc(C)c2)S(=O)(=O)c2ccc(C)cc2)cc1 [Compound 5i, N-(4-Methoxyphenethyl)-4-methyl-N-(3-methylbenzyl) benzensulfonamide]	0.47 ± 0.0109	-0.7362	0.47	38.1497 and 38.771	38.1601	45.4473 and 46.02	45.6873	56.7855 and 56.3378	56.078	70.5479 and 70.7214	71.0257	74.2589 and 75.8888	75.1591	78.1111 and 76.8876	77.3479	87.2875 and 87.9775	87.5273	97.778 and 97.9734	97.9676	37.5596	% inhibition [1, 15]: 45.5947%; % inhibition [1, 16]: 55.1106%; % inhibition [1, 17]: 71.8079%; % inhibition [1, 18]: 75.3297%; % inhibition [1, 19]: 77.0449%; % inhibition [1, 20]: 87.3169%; % inhibition [1, 21]: 98.1514%; IC50, single experiment [1, 22]: 0.1949 µg/mL and 0.1984 µg/mL; IC50 (best-fit value) [1, 4]: 0.1836; IC50 (Mean) [1, 23]: 0.1923 µg/mL (≈ 0.47 µM)
COc1ccc(CCN(Cc2ccc(C)cc2)S(=O)(=O)c2ccc(C)cc2)cc1 [Compound 5j, N-(4-Methoxyphenethyl)-4-methyl-N-(4-methylbenzyl) benzensulfonamide]	1.11 ± 0.0999	-0.3835	1.11	17.2222 and 17.1022	17.3151	31.4199 and 30.0777	30.8306	36.8749 and 37.0114	36.7468	48.1258 and 49.804	49.2304	54.7822 and 55.2287	55.0656	59.1009 and 58.8888	59.2947	65.9226 and 65.7652	65.7178	90.0712 and 89.7746	89.7021	17.621	% inhibition [1, 15]: 30.9943%; % inhibition [1, 16]: 36.3541%; % inhibition [1, 17]: 49.7613%; % inhibition [1, 18]: 55.1859%; % inhibition [1, 19]: 59.8945%; % inhibition [1, 20]: 65.4657%; % inhibition [1, 21]: 89.2606%; IC50, single experiment [1, 22]: 0.5355 µg/mL and 0.4119 µg/mL; IC50 (best-fit value) [1, 4]: 0.4136; IC50 (Mean) [1, 23]: 0.4537 µg/mL (≈ 1.11 µM)
